{"source": "patent US10512627B2", "about": "“Anti-tumor compound and the medical use thereof” (Tianjin Medical University Cancer Institute and Hospital, priority 2014, dated 2019)", "key": {"[1]": {"system": "human lung adenocarcinoma cell A549", "experiment": "Scratch test, migration of A549 (Example 4)", "format": "cell-based", "conditions": "4 and 100 μmol/L, 0-36 h", "procedure": "The inhibiting ability of (S)2-(4′-methyl-3′-nitrobenzoylamino)-3-phenylpropionic acid for the migration of human lung adenocarcinoma cell A549 was tested by scratch test.\nA549 cells in logarithmic growth phase were plated in the 6-well plate with the density of 5×10^5/3 mL, and after 12 h, the drug was added, with 100 μL per well. The final concentrations of (S)2-(4′-methyl-3′-nitrobenzoylamino)-3-phenylpropionic acid (TCI04) were 4 and 100 μmol/L respectively. The negative control was 100 μL sterilized water with 2% DMSO and the positive control was 4, 100 μmol/L 4-methyl-3-nitrobenzoic acid (TCI01). After 36 h, the medium was removed, and after washing 3 times with PBS, 3 ml culture medium without fetal bovine serum and 100 μL drug (concentration was as above) per well were added. 6 h later, 200 μL tips were used to scratch, and after washing 4 times with PBS, 3 ml medium without fetal bovine serum per well was added. The distance of cell migration was recorded every 3 h under the inverted microscope, and photos were taken at 0 h and 36 h."}, "[2]": {"system": "B16 melanoma cells", "experiment": "Artificial metastasis model of B16 mice melanoma (Example 6)", "format": "in vivo, C57BL/6 mouse", "procedure": "3) An metastasis model of B16 mouse melanoma is constructed by direct injection of B16 cells into tail vein in C57BL/6 mouse, and the ability of a drug for inhibiting tumor metastasis is determined by counting the number of the metastatic tumors on lung. Such a model mimics the metastatic process of cancer cells from the circulatory system to the target organ, which is more similar with the metastatic way of tumor cells in the bodies of patients with advanced cancer.\nThe ability of (S)2-(4′-methyl-3′-nitrobenzoylamino)-3-phenylpropionic acid for inhibiting tumor metastasis in vivo was tested by artificial metastasis model of B16 mice melanoma.\n1) Mice grouping: C57BL/6 of SPF grade, 5 weeks old, 18˜22 g, 8 mice for each group, half male and half female;\n2) The mother liquid of (S)2-(4′-methyl-3′-nitrobenzoylamino)-3-phenylpropionic acid for the dosage form administrated by intravenous injection was diluted to 0.8 mg/mL, 0.2 mg/mL, 0.05 mg/mL by adding sterilized water. […]\n3) B16 cells in logarithmic growth phase were digested with 0.05% typsine for 1 min, and after centrifugation at 1000 rpm for 5 min, the supernatant was discarded and the cells were resuspended and counted. […]\n5) After the completion of the experiment, the mice were sacrificed and the lungs were taken, the number and size of melanomas on the lungs was counted, and the weight of the lungs were weighed;"}, "[3]": {"experiment": "Acute toxicity assay in mice, oral administration (Example 10)", "conditions": "both sexes, mouse, in vivo, 5000 mg/kg; oral administration, Kunming mice", "procedure": "(§1) The medium lethal dose of (S)2-(4′-methyl-3′-nitrobenzoylamino)-3-phenylpropionic acid via oral administration was tested by acute toxicity assay in mice.\n(§2) 1) Mice grouping: Kunming mice of clean grade, 10 weeks old, 30˜40 g body weight, 5 mice for each group, and all of the mice were males or females.\n(§3) 2) 3.2 g (S)2-(4′-methyl-3′-nitrobenzoylamino)-3-phenylpropionic acid was added to 8 mL solution of 3% sodium carboxymethylcellulose solution, and the mixture was homogenated for 5 min at 30000 rpm with a homogenizer. Each mouse undergone administration of intragastric infusion with 0.5 ml at a dosage of 5000 mg/kg. […] If the death number was […], the LD50 was regarded as more than 5000 mg/kg; if the death number equals to or was more than 3, the main experiments will be performed. The experiment was repeated for 3 times and the result was recorded as follows: […]"}, "[4]": {"system": "Kunming mice", "experiment": "Acute toxicity assay in mice, oral administration (Example 10)", "conditions": "Kunming, mouse, in vivo, 14 days", "procedure": "as §1, §2, §3"}, "[5]": {"system": "Lewis lung cancer cells", "experiment": "Lewis lung cancer metastasis model in mice (Example 8)", "format": "in vivo, C57BL/6 mouse", "conditions": "50, 25, 5 mg/kg intragastric, twice a day, 21 days; P<0.01", "procedure": "5) A lung cancer model of mouse is established by subcutaneous inoculation of Lewis lung cancer cells in C57BL/6 mouse, because of the characteristic of Lewis lung cancer cell of specific metastasis toward the lung, and the ability of a drug for inhibiting the metastasis of the tumor cells may be determined by counting the number of the metastatic tumors on lung.\nThe ability of (S)2-(4′-methyl-3′-nitrobenzoylamino)-3-phenylpropionic acid for inhibiting tumor metastasis in vivo was tested by Lewis lung cancer metastasis model in mice.\n1) Mice grouping, C57BL/6 of SPF grade, 5 weeks old, 18˜22 g, 8 mice for each group. half male and half female;\n2) The mother liquid of (S)2-(4′-methyl-3′-nitrobenzoylamino)-3-phenylpropionic acid for dosage form for oral administration was diluted with 1.5% CMC-Na solution to 5 mg/mL, 2.5 mg/mL, 0.5 mg/mL. The dosage for administration in mice was as follows, high dosage group of 50 mg/kg; Medium dosage group of 25 mg/kg; low dosage group of 5 mg/kg. The negative control was 1.5% CMC-Na solution; The positive control was 10 mg/mL of dosage form of 4-methyl-3-nitrobenzoic acid for oral administration, with dosage for administration of 100 mg/kg; […]\n5) After the completion of the experiment, the mice were sacrificed and the lungs were made into paraffin tissue sections, then stained by HE and the number of tumors were counted under microscope;"}}, "data": [{"smiles": "Cc1ccc(C(=O)N[C@@H](Cc2ccccc2)C(=O)O)cc1[N+](=O)[O-]", "note": "[(S)2-(4′-methyl-3′-nitrobenzoylamino)-3-phenylpropionic acid]", "values": [{"measurement": "inhibition of migration ability (coalescence speed of cell scratch vs negative control)", "setting": "[1]", "value": "significantly inhibited"}, {"measurement": "tumor numbers on the lungs and lung weights compared with the negative control", "setting": "[2]; 8, 2, 0.5 mg/kg tail vein, twice a day, 21 days, P<0.01", "value": "very significant difference"}, {"measurement": "inhibition of metastasis of B16 mouse melanoma cell in C57BL/6 mouse", "setting": "[2]; tail vein administration of 0.5 mg/kg", "value": "significantly inhibit"}, {"measurement": "LD50 at 14 days", "setting": "[3]", "value": "> 5000", "unit": "mg/kg"}, {"measurement": "Death number, Female mice, The first test", "setting": "[4]; female", "value": 2}, {"measurement": "Death number, Female mice, The second test", "setting": "[4]; female", "value": 2}, {"measurement": "Death number, Female mice, The third test", "setting": "[4]; female", "value": 1}, {"measurement": "Death number, Male mice, The first test", "setting": "[4]; male", "value": 2}, {"measurement": "Death number, Male mice, The second test", "setting": "[4]; male", "value": 1}, {"measurement": "Death number, Male mice, The third test", "setting": "[4]; male", "value": 1}, {"measurement": "number of the tumors on the lungs compared with the negative control", "setting": "[5]", "value": "very significant difference"}]}]}
